Source: patent US20220214361A1, “Method for Screening Candidate Drug for Treating Degenerative Brain Diseases” (THE INDUSTRY & ACADEMIC COOPERATION IN CHUNGNAM NATIONAL …, priority 2019, published 2022)
Entries after “also recorded” stand apart in the source; their conditions may differ.

Experiments:
[1] = test system: FAF1 protein secretion in SH-SY5Y cells overexpressing FAF1; assay: Secretion of FAF1 protein into culture medium after Brefeldin A treatment (ER-Golgi pathway), Western blotting; format: cell-based, human; conditions: 10 μM, 24 hours, serum-free DMEM, SH-SY5Y cells transfected with 3x Flag tag-FAF1 vector, FIG. 2b
Experimental: (§1) Particularly, SH-SY5Y cells were aliquoted into 60 mm culture dishes at the density of 5×10^5 cells/dish, and subcultured in DMEM (Dulbecco/s Modified Eagle's Medium) supplemented with antibiotics and 10% FBS (fetal bovine serum) under the conditions of 37° C. and 5% CO2 for 24 hours. The cultured SH-SY5Y cells were transfected with 2 μg of 3x Flag tag-FAF1 expression vector to overexpress FAF1 protein, cultured for 24 hours, and then washed with PPS buffer. Thereafter, the medium was replaced with serum-free DMEM (Dulbecco/s Modified Eagle's Medium), and the cells were treated with 10 μM Brefeldin A (BFA), a compound that inhibits protein secretion through the ER-Golgi pathway, and further cultured in an incubator for 24 hours. The medium was transferred to a 15 ml tube and centrifuged at 1500 rpm for 2 minutes to obtain a supernatant. The obtained supernatant was placed in Amicon Ultra-4 Centrifugal Filter, and centrifuged again at 4000×g, 4° C. for 15 minutes. The protein filtered by the filter was analyzed by Western blotting.

[2] = test system: FAF1 protein secretion in SH-SY5Y cells overexpressing FAF1; assay: Secretion of FAF1 protein into culture medium after treatment with compounds that increase or decrease exosome secretion, Western blotting; format: cell-based, human; conditions: 10 μM, 24 hours, serum-free DMEM, SH-SY5Y cells transfected with 3x Flag tag-FAF1 vector, FIG. 3
Experimental: as §1, with “PBS” for “PPS”, “Monensin” for “Brefeldin A (BFA), a”, “to increase exosome” for “that inhibits protein”, “and 10 μM GW4869 compound to decrease exosome secretion,” for “through the ER-Golgi pathway,”, “cultured” for “cultured in an incubator”

Compound | expression level of FAF1 protein (secreted into culture medium) versus group not treated [1] | secretion amount of FAF1 compared to control group [2]
C[C@H]1CCC/C=C/[C@@H]2C[C@H](O)C[C@H]2[C@H](O)/C=C/C(=O)O1 [Brefeldin A] | constant; also recorded: no difference | 
O=C(/C=C/c1ccc(/C=C/C(=O)Nc2ccc(C3=NCCN3)cc2)cc1)Nc1ccc(C2=NCCN2)cc1 [GW4869] |  | decreased
CC[C@@]1([C@@H]2O[C@@H]([C@H]3O[C@@](O)(CO)[C@H](C)C[C@@H]3C)C[C@@H]2C)CC[C@H]([C@]2(C)CC[C@]3(C[C@H](O)[C@@H](C)[C@@H]([C@@H](C)[C@@H](OC)[C@H](C)C(=O)O)O3)O2)O1 [Monensin] |  | significantly increased
